*1 amine or outer side, *2 acyl side, *3 side chain or, on linkers, in order; H or OH if unused. Where a SMILES comes first, the peptide text is derived from it. Bridges are numbered along the chain shown (N, C = ends). [ ]: non-standard residue; d: D form. The star is where a group is joined. ξ: configuration not given here. X3 = NCCC[C@H](NC(=O)CNCCNCCN*)C(=O)NCCCCCCCCCCC(=O)O; Phe(3-CF3) = N[C@@H](Cc1cccc(C(F)(F)F)c1)C(=O)O; Ala(morpholin-4-yl) = N[C@@H](CN1CCOCC1)C(=O)O; Phe(4-COOH) = N[C@@H](Cc1ccc(C(=O)O)cc1)C(=O)O; Bip = N[C@@H](Cc1ccc(-c2ccccc2)cc1)C(=O)O; Phe(3-Me) = Cc1cccc(C[C@H](N)C(=O)O)c1; NH(CH2)12COOH = O=C(O)CCCCCCCCCCCCN*; NMeAEEA = CN(CCOCCOCC(=O)[*:2])[*:1]; Cyclopropanecarbonyl = O=C(C1CC1)*; Val(3-OH) = CC(C)(O)[C@H](N)C(=O)O; 4Pal = N[C@@H](Cc1ccncc1)C(=O)O; Cha = N[C@@H](CC1CCCCC1)C(=O)O; Cit = NC(=O)NCCC[C@H](N)C(=O)O; Thr(3ξ) = CC(O)[C@H](N)C(=O)O; 12Ado = NCCCCCCCCCCCC(=O)O; Carboxymethyl = O=C(O)C*; NMeA = CN[C@@H](C)C(=O)O; Orn = NCCC[C@H](N)C(=O)O; Aun = NCCCCCCCCCCC(=O)O; Dab = NCC[C@H](N)C(=O)O; Dap = NC[C@H](N)C(=O)O; AEEA = NCCOCCOCC(=O)O

The target of one experiment is T1, PD-1/PD-L1 interaction (PE-labeled human PD-L1-Ig binding to Jurkat cell line over-expressing human PD-1) (Homo sapiens, UniProt Q15116).
T1 construct: expressed in transfected cells; host or cells: Jurkat
T1 sequence (Q15116 25-288): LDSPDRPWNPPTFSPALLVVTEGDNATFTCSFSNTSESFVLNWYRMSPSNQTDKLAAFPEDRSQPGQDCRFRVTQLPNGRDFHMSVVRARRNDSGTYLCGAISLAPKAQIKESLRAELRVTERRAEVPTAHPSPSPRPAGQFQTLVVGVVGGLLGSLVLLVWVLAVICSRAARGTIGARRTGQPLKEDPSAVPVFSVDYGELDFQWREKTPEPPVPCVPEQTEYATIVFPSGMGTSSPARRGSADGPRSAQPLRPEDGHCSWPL
The experiment can be described thus: Jurkat-PD-1 Cell Binding High-Content Screening Assay (CBA). To be noted: Jurkat-hPD-1 cells, PE-labeled PD-L1-Ig 20 nM final; read-out: Jurkat HPD1 PDL1 IC50. In outline: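 High-content imaging read-out of PE-PD-L1-Ig binding (20 nM final, 1 h) to Jurkat-hPD-1 cells, after 2 h compound exposure at 37 °C in DMEM with 10% FCS. Nuclei counterstained with Hoechst 33342 after paraformaldehyde fixation.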
`CC(C)C[C@H]1NC(=O)[C@H](C)N(C)C(=O)[C@H](CCC(N)=O)NC(=O)[C@H](Cc2ccc(-c3ccccc3)cc2)NC(=O)[C@H](Cc2ccc(C(=O)O)cc2)NC(=O)[C@H](Cc2cccc(C(F)(F)F)c2)NC(=O)[C@H](CC(=O)O)NC(=O)[C@H](Cc2ccc(OCC(=O)O)cc2)NC(=O)[C@H](CN2CCOCC2)NC(=O)CSC[C@@H](C(=O)N[C@@H](CCN)C(=O)NCCCCCCCCCCCCC(=O)O)NC(=O)[C@H](CCC(=O)O)NC(=O)[C@H](C(C)C)NC(=O)[C@H](CC2CCCCC2)NC(=O)[C@H](CCN)NC1=O` [Example 1151] ({CH2CO}-[Ala(morpholin-4-yl)]Y(Carboxymethyl)D[Phe(3-CF3)][Phe(4-COOH)][Bip]Q[NMeA][dL][Dab][Cha]VEC[Dab]-{NH(CH2)12COOH}; thioether N-14): the IC50 (in general, the point on the concentration scale where inhibition reaches its midpoint) stood at 6.1 nM.
In the case of `Cc1cccc(C[C@@H]2NC(=O)[C@H](CC(=O)O)NC(=O)[C@H](Cc3cnc[nH]3)NC(=O)[C@H](Cc3ccc(OCC(=O)O)cc3)NC(=O)CSC[C@@H](C(=O)NCCCCCCCCCCC(=O)O)NC(=O)[C@H](CCC(=O)O)NC(=O)[C@H](C(C)C)NC(=O)[C@H](CC3CCCCC3)NC(=O)[C@H](CCN)NC(=O)[C@@H](CC(C)C)NC(=O)[C@H](C)N(C)C(=O)[C@H](Cc3ccc(O)cc3)NC(=O)[C@H](Cc3ccc(-c4ccccc4)cc3)NC(=O)[C@H](CCC(N)=O)NC2=O)c1` [Example 2258] ({CH2CO}-Y(Carboxymethyl)HD[Phe(3-Me)]Q[Bip]Y[NMeA][dL][Dab][Cha]VEC[Aun]-OH; thioether N-14), the IC50 was found to be 765 nM.
With `Cc1cccc(C[C@@H]2NC(=O)[C@H](CC(=O)O)NC(=O)[C@H](Cc3ccncc3)NC(=O)[C@H](Cc3ccc(OCC(=O)O)cc3)NC(=O)CSC[C@@H](C(=O)N[C@@H](CCN)C(=O)NCCOCCOCC(=O)NCCCCCCCCCCC(=O)O)NC(=O)[C@H]([C@@H](C)O)NC(=O)[C@H](C(C)C)NC(=O)[C@H](CC3CCCCC3)NC(=O)[C@H](CC(N)=O)NC(=O)[C@@H](CC(C)C)NC(=O)[C@H](C)N(C)C(=O)[C@H](Cc3ccc(OCC(=O)O)cc3)NC(=O)[C@H](Cc3ccc(-c4ccccc4)cc3)NC(=O)[C@H](Cc3ccc(OCC(=O)O)cc3)NC2=O)c1` [Example 1357] ({CH2CO}-Y(Carboxymethyl)[4Pal]D[Phe(3-Me)]Y(Carboxymethyl)[Bip]Y(Carboxymethyl)[NMeA][dL]N[Cha]VTC[Dab][AEEA][Aun]-OH; thioether N-14), the IC50 was determined as 20.5 nM.
As for `CC(C)C[C@@H]1NC(=O)[C@H](Cc2c[nH]c3ccccc23)NC(=O)[C@H](CC(=O)O)NC(=O)[C@H](Cc2ccncc2)NC(=O)[C@H](Cc2ccc(OCC(=O)O)cc2)NC(=O)CSC[C@@H](C(=O)N[C@@H](CCN)C(=O)NCCCCCCCCCCC(=O)O)NC(=O)[C@H](CCCN)NC(=O)[C@H](C(C)C)NC(=O)[C@H](CC2CCCCC2)NC(=O)[C@H](CCN)NC(=O)[C@@H](CC(C)C)NC(=O)[C@H](C)N(C)C(=O)[C@H](C(C)C)NC(=O)[C@H](Cc2ccc(-c3ccccc3)cc2)NC1=O` [Example 1210] ({CH2CO}-Y(Carboxymethyl)[4Pal]DWL[Bip]V[NMeA][dL][Dab][Cha]V[Orn]C[Dab][Aun]-OH; thioether N-14), the IC50 stood at 9.4 nM.
The same measure, in the same setting: then `CC(C)C[C@H]1NC(=O)[C@H](C)N(C)C(=O)[C@H](Cc2ccc(OCC(=O)O)cc2)NC(=O)[C@H](Cc2ccc(-c3ccccc3)cc2)NC(=O)[C@H](Cc2ccc(OCC(=O)O)cc2)NC(=O)[C@H](Cc2c[nH]c3ccccc23)NC(=O)[C@H](CC(=O)O)NC(=O)[C@H](Cc2ccc(OCC(=O)O)cc2)NC(=O)[C@H]([C@@H](C)O)NC(=O)CSC[C@@H](C(=O)N[C@@H](CCCN)C(=O)NCCOCCOCC(=O)NCCCCCCCCCCC(=O)O)NC(=O)[C@H](CCC(=O)O)NC(=O)[C@H](C(C)C)NC(=O)[C@H](CC2CCCCC2)NC(=O)[C@H](CC(N)=O)NC1=O` [Example 1388] ({CH2CO}-TY(Carboxymethyl)DWY(Carboxymethyl)[Bip]Y(Carboxymethyl)[NMeA][dL]N[Cha]VEC[Orn][AEEA][Aun]-OH; thioether N-14), with 660 nM.
For the compound `Cc1cccc(C[C@@H]2NC(=O)[C@H](CC(=O)O)NC(=O)[C@H](Cc3ccc(OCC(=O)O)cc3)NC(=O)[C@H](CN)NC(=O)CSC[C@@H](C(=O)N[C@@H](CCN)C(=O)NCCCCCCCCCCC(=O)O)NC(=O)[C@H](CO)NC(=O)[C@H](C(C)C)NC(=O)[C@H](CC3CCCCC3)NC(=O)[C@H](CCN)NC(=O)[C@@H](CC(C)C)NC(=O)[C@H](C)N(C)C(=O)[C@H](Cc3ccc(OCC(=O)O)cc3)NC(=O)[C@H](Cc3ccc(-c4ccccc4)cc3)NC(=O)[C@H](Cc3ccc(OCC(=O)O)cc3)NC2=O)c1` [Example 1263] ({CH2CO}-[Dap]Y(Carboxymethyl)D[Phe(3-Me)]Y(Carboxymethyl)[Bip]Y(Carboxymethyl)[NMeA][dL][Dab][Cha]VSC[Dab][Aun]-OH; thioether N-14), the IC50 is 12.7 nM.
On to `Cc1cccc(C[C@@H]2NC(=O)[C@H](CC(=O)O)NC(=O)[C@H](Cc3ccc(OCC(=O)O)cc3)NC(=O)[C@H]([C@@H](C)O)NC(=O)CSC[C@@H](C(=O)N[C@@H](CCN)C(=O)NCCOCCOCC(=O)NCCCCCCCCCCC(=O)O)NC(=O)[C@H](CCC(=O)O)NC(=O)[C@H](C(C)C)NC(=O)[C@H](CC3CCCCC3)NC(=O)[C@H](CCN)NC(=O)[C@@H](CC(C)C)NC(=O)[C@H](C)N(C)C(=O)[C@H](Cc3ccc(OCC(=O)O)cc3)NC(=O)[C@H](Cc3ccc(-c4ccccc4)cc3)NC(=O)[C@H](Cc3ccc(OCC(=O)O)cc3)NC2=O)c1` [Example 1369] ({CH2CO}-TY(Carboxymethyl)D[Phe(3-Me)]Y(Carboxymethyl)[Bip]Y(Carboxymethyl)[NMeA][dL][Dab][Cha]VEC[Dab][AEEA][Aun]-OH; thioether N-14), for which the concentration for half-maximal inhibition (IC50) amounted to 12 nM.
For the compound `Cc1cccc(C[C@@H]2NC(=O)[C@H](CC(=O)O)NC(=O)[C@H](Cc3ccc(OCC(=O)O)cc3)NC(=O)[C@H](C(C)O)NC(=O)CSC[C@@H](C(=O)N(C)CCOCCOCC(=O)NCCCCCCCCCCC(=O)O)NC(=O)[C@H](C(C)C)NC(=O)[C@H](C(C)C)NC(=O)[C@H](CC3CCCCC3)NC(=O)[C@H](CCN)NC(=O)[C@@H](CC(C)C)NC(=O)[C@H](C)N(C)C(=O)[C@H](CCCNC(N)=O)NC(=O)[C@H](Cc3ccc(-c4ccccc4)cc3)NC(=O)[C@H](C(C)C)NC2=O)c1` (stereo partly drawn) [Example 2355] ({CH2CO}-[Thr(3ξ)]Y(Carboxymethyl)D[Phe(3-Me)]V[Bip][Cit][NMeA][dL][Dab][Cha]VVC[NMeAEEA][Aun]-OH; thioether N-14), the IC50 came out at 45.3 nM.
As for `Cc1cccc(C[C@@H]2NC(=O)[C@H](CC(=O)O)NC(=O)[C@H](Cc3ccc(OCC(=O)O)cc3)NC(=O)[C@H](CN)NC(=O)CSC[C@@H](C(=O)NCCNCCNCC(=O)N[C@@H](CCCN)C(=O)NCCCCCCCCCCC(=O)O)NC(=O)[C@H](CO)NC(=O)[C@H](C(C)C)NC(=O)[C@H](CC(C)C)NC(=O)[C@H](CC(N)=O)NC(=O)[C@@H](CC(C)C)NC(=O)[C@H](C)N(C)C(=O)[C@H](C(C)C)NC(=O)[C@H](Cc3ccc(-c4ccccc4)cc3)NC(=O)[C@H](CC(C)C)NC2=O)c1` [Example 1064] ({CH2CO}-[Dap]Y(Carboxymethyl)D[Phe(3-Me)]L[Bip]V[NMeA][dL]NLVSC-X3; thioether N-14), the IC50 came to 23.6 nM.
`Cc1cccc(C[C@@H]2NC(=O)[C@H](CC(=O)O)NC(=O)[C@H](Cc3ccc(OCC(=O)O)cc3)NC(=O)[C@H](Cc3ccncc3)NC(=O)CSC[C@@H](C(=O)N[C@@H](CCCN)C(=O)N[C@@H](CO)C(=O)NCCCCCCCCCCCC(=O)O)NC(=O)[C@H](C(C)O)NC(=O)[C@H](C(C)C)NC(=O)[C@H](CC3CCCCC3)NC(=O)[C@H](CCN)NC(=O)[C@@H](CC(C)C)NC(=O)[C@H](C)N(C)C(=O)[C@H](CCCCNC(=O)C3CC3)NC(=O)[C@H](Cc3ccc(-c4ccccc4)cc3)NC(=O)[C@H](Cc3ccc(O)cc3)NC2=O)c1` (stereo partly drawn) [Example 2404] ({CH2CO}-[4Pal]Y(Carboxymethyl)D[Phe(3-Me)]Y[Bip]K(Cyclopropanecarbonyl)[NMeA][dL][Dab][Cha]V[Thr(3ξ)]C[Orn]S[12Ado]-OH; thioether N-14): the IC50 is 40.9 nM.

The experiment is the same for the next values; noted with them: PE-labeled PD-L1-Ig 20 nM final, Jurkat-hPD-1 cells; read-out: Jurkat HPD1 PDL1 IC50.
For `CC(C)C[C@H]1NC(=O)[C@H](C)N(C)C(=O)[C@H](Cc2ccc(OCC(=O)O)cc2)NC(=O)[C@H](Cc2ccc(-c3ccccc3)cc2)NC(=O)[C@H](Cc2ccc(C(=O)O)cc2)NC(=O)[C@H](Cc2cccc(C(F)(F)F)c2)NC(=O)[C@H](CC(=O)O)NC(=O)[C@H](Cc2ccc(OCC(=O)O)cc2)NC(=O)[C@H](C(C)O)NC(=O)CSC[C@@H](C(=O)N[C@@H](CCN)C(=O)NCCCCCCCCCCC(=O)O)NC(=O)[C@H](CO)NC(=O)[C@H](C(C)(C)O)NC(=O)[C@H](CC2CCCCC2)NC(=O)[C@H](Cc2cnc[nH]2)NC1=O` (stereo partly drawn) [Example 2575] ({CH2CO}-[Thr(3ξ)]Y(Carboxymethyl)D[Phe(3-CF3)][Phe(4-COOH)][Bip]Y(Carboxymethyl)[NMeA][dL]H[Cha][Val(3-OH)]SC[Dab][Aun]-OH; thioether N-14), the IC50 stood at 29.6 nM.
In the case of `CC(C)C[C@H]1NC(=O)[C@H](C)N(C)C(=O)[C@H](Cc2ccc(C(=O)O)cc2)NC(=O)[C@H](Cc2ccc(-c3ccccc3)cc2)NC(=O)[C@H](Cc2ccc(C(=O)O)cc2)NC(=O)[C@H](Cc2cccc(C(F)(F)F)c2)NC(=O)[C@H](CC(=O)O)NC(=O)[C@H](Cc2ccc(C(=O)O)cc2)NC(=O)[C@H](C(C)O)NC(=O)CSC[C@@H](C(=O)N[C@@H](CCN)C(=O)NCCCCCCCCCCC(=O)O)NC(=O)[C@H](C(C)O)NC(=O)[C@H](C(C)C)NC(=O)[C@H](CC2CCCCC2)NC(=O)[C@H](CCN)NC1=O` (stereo partly drawn) [Example 2566] ({CH2CO}-[Thr(3ξ)][Phe(4-COOH)]D[Phe(3-CF3)][Phe(4-COOH)][Bip][Phe(4-COOH)][NMeA][dL][Dab][Cha]V[Thr(3ξ)]C[Dab][Aun]-OH; thioether N-14), the IC50 was 4.5 nM.

Values taken from US20260070945A1, “MACROCYCLIC IMMUNOMODULATORS” (Bristol-Myers Squibb Company, priority 2022, published 2026).
